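In this assay, cells in 96-well plates receive the compound at five concentrations for 48 hours. Endpoints are linearly interpolated between the surrounding concentrations. At the GI50, growth is halved.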 The source made the active and inactive calls. Cut-off read from the data, not from the text of the source: active = GI50 up to about 1.1 µM and inactive = higher. A value given as a limit tells only on which side of the number the result lay.

Some test systems named below: SK-MEL-28; MDA-MB-231; M14; OVCAR-8; NCI-H23; HCT-116; CCRF-CEM; A498; SK-OV-3; HOP-92; RXF 393; NCI/ADR-RES; K562; HL-60; UACC-257; Malme-3M; RPMI-8226; HT-29; ACHN; SNB-19.
Common to all, as to test: growth of human tumour cells (NCI), 48 h

On to `COc1ccc2nc3cc(Cl)ccc3c(NCCCCCC(=O)NC(COc3cnc4c(ccc5cccnc54)c3)COc3cnc4c(ccc5cccnc54)c3)c2c1`, for which the GI50 was 17.6 µM (inactive) in the test on SK-MEL-28; 6.34 µM (inactive) with MDA-MB-231; 77.1 µM (inactive) with M14; 31.4 µM (inactive) in the test with OVCAR-8; 28.2 µM (inactive) in the test on NCI-H23; 3.94 µM (inactive) with HCT-116. Also, the GI50 is 1.99 µM (inactive) in the test with CCRF-CEM; 23.2 µM (inactive) with A498; 21.9 µM (inactive) with SK-OV-3; > 100 µM (inactive) in the test on HOP-92; 10.8 µM (inactive) in the test with RXF 393; > 100 µM (inactive) in the test with NCI/ADR-RES. In addition, the GI50 with K562 was 3.43 µM (inactive); in the test with HL-60, 3.44 µM (inactive); with UACC-257, 8.93 µM (inactive); in the test with Malme-3M, 34.9 µM (inactive); with RPMI-8226, 5.65 µM (inactive); with HT-29, 5.45 µM (inactive). Also, the GI50 in the test with ACHN is 36.6 µM (inactive); in the test on SNB-19 it was 13.6 µM (inactive).
For the molecule `O=C1Nc2ccccc2/C1=C/c1c(Cl)[nH]c2ccc(O)cc12`, the GI50 with SK-MEL-28 is 7.05 µM (inactive); in the test with MDA-MB-231, 1.79 µM (inactive); in the test with M14, 1.36 µM (inactive); with OVCAR-8, 2.93 µM (inactive); in the test on NCI-H23, 2.63 µM (inactive); with HCT-116, 0.719 µM (active). In addition, the GI50 with CCRF-CEM is 1.4 µM (inactive); in the test on A498 it was 2.31 µM (inactive); with SK-OV-3, 1.71 µM (inactive); in the test with HOP-92 it was 5.69 µM (inactive); with RXF 393 it was 2.36 µM (inactive); in the test with NCI/ADR-RES, 0.944 µM (active). For the same molecule, the GI50 is 0.649 µM (active) in the test with K562; 0.836 µM (active) with HL-60; 10.6 µM (inactive) in the test on UACC-257; 0.736 µM (active) in the test with Malme-3M; 3.43 µM (inactive) in the test on RPMI-8226; 3.16 µM (inactive) in the test on HT-29. The GI50 was 4.7 µM (inactive) in the test on ACHN and 3.21 µM (inactive) in the test on SNB-19.
For the molecule `CC(NC1=NCCO1)c1ccccc1Cl` (stereo not given), the GI50 in the test with SK-MEL-28 is > 100 µM (inactive); in the test on MDA-MB-231, > 100 µM (inactive); in the test on M14, > 100 µM (inactive); with OVCAR-8, > 100 µM (inactive); in the test on NCI-H23, > 100 µM (inactive); with HCT-116 it was 60.4 µM (inactive). Moreover, the GI50 is > 100 µM (inactive) in the test on CCRF-CEM; > 100 µM (inactive) with A498; > 100 µM (inactive) in the test on SK-OV-3; < 0.01 µM (active) with HOP-92; > 100 µM (inactive) in the test with RXF 393; > 100 µM (inactive) with NCI/ADR-RES. The GI50 in the test on K562 is > 100 µM (inactive); with HL-60, > 100 µM (inactive); with UACC-257, > 100 µM (inactive); in the test on Malme-3M, > 100 µM (inactive); with RPMI-8226, > 100 µM (inactive); in the test on HT-29, 25.1 µM (inactive). Besides, the GI50 in the test on ACHN and with SNB-19 was > 100 µM (inactive) each time.
`CC(C)=CCN(N=O)c1ncnc2[nH]cnc12`: the GI50 with SK-MEL-28, in the test on MDA-MB-231, with M14, in the test on OVCAR-8, in the test on NCI-H23 and in the test with HCT-116 was > 100 µM (inactive) throughout. Moreover, the GI50 with CCRF-CEM was > 100 µM (inactive); in the test on A498, 95.1 µM (inactive); in the test with SK-OV-3 it was > 100 µM (inactive); with HOP-92 it was > 100 µM (inactive); in the test with RXF 393 it was > 100 µM (inactive); with NCI/ADR-RES, > 100 µM (inactive). The GI50 in the test with K562 is 73.6 µM (inactive); in the test with HL-60, > 100 µM (inactive); in the test on UACC-257, > 100 µM (inactive); in the test on Malme-3M, > 100 µM (inactive); with RPMI-8226, 88.1 µM (inactive); in the test on HT-29 it was > 100 µM (inactive). Besides, the GI50 with ACHN and in the test with SNB-19 was > 100 µM (inactive) in each case.
Turning to `[N-]=[N+]=Nc1c(-c2ccccc2)c(Cl)nc2ccccc12`, the GI50 was 58.7 µM (inactive) in the test with SK-MEL-28; 31.8 µM (inactive) in the test with MDA-MB-231; 46 µM (inactive) in the test with M14; 58.2 µM (inactive) with OVCAR-8; 33.5 µM (inactive) with NCI-H23; 47.8 µM (inactive) in the test on HCT-116. In addition, the GI50 in the test with CCRF-CEM is > 100 µM (inactive); in the test with A498, 27.5 µM (inactive); in the test on SK-OV-3, 86.3 µM (inactive); in the test on HOP-92, 22 µM (inactive); with RXF 393, 51.6 µM (inactive); in the test on NCI/ADR-RES it was 34.8 µM (inactive). The GI50 was 45.7 µM (inactive) in the test with K562; 56.2 µM (inactive) with HL-60; 25.5 µM (inactive) in the test with UACC-257; 34.8 µM (inactive) with Malme-3M; 29.7 µM (inactive) with RPMI-8226; 19.7 µM (inactive) in the test with HT-29. The values for the GI50 in the test on ACHN and in the test with SNB-19 were 19.6 µM (inactive) and 29.9 µM (inactive), respectively.
With `C=C1CC[C@@]2(OC1)OC1C[C@H]3[C@@H]4CC=C5C[C@@H](O)CC(OC6OCC(OC(=O)[C@@H](O)[C@@H](C)CC)C(OC(C)=O)C6OC6OC(C)C(O)C(O)C6O)[C@]5(C)[C@H]4CC[C@]3(C)C1[C@@H]2C` (stereo not given in full), the GI50 in the test on SK-MEL-28 was 2.2 µM (inactive); in the test on MDA-MB-231, 1.75 µM (inactive); in the test with M14, 2.11 µM (inactive); in the test on OVCAR-8, 2.16 µM (inactive); in the test on NCI-H23 it was 2.44 µM (inactive); in the test with HCT-116 it was 1.65 µM (inactive). For the same molecule, the GI50 is 1.53 µM (inactive) with CCRF-CEM; 1.81 µM (inactive) in the test on A498; 1.83 µM (inactive) in the test with SK-OV-3; 3.3 µM (inactive) in the test with HOP-92; 1.93 µM (inactive) in the test with RXF 393; 2.32 µM (inactive) with NCI/ADR-RES. Also, the GI50 with K562 is 2.01 µM (inactive); in the test with HL-60 it was 1.81 µM (inactive); in the test on UACC-257 it was 2.21 µM (inactive); in the test with Malme-3M, 3.84 µM (inactive); in the test on RPMI-8226, 2.09 µM (inactive); in the test on HT-29, 2.82 µM (inactive). Further, the GI50 was 2.28 µM (inactive) with ACHN and 1.96 µM (inactive) with SNB-19.
Turning to `C=C(Cl)C(Cl)(CBr)CCCC(C)C` (stereo not given), the GI50 is 19.4 µM (inactive) in the test on SK-MEL-28; 20.7 µM (inactive) with MDA-MB-231; > 100 µM (inactive) in the test on M14; 20.7 µM (inactive) with OVCAR-8; > 100 µM (inactive) in the test on NCI-H23; 6.47 µM (inactive) with HCT-116. Further, the GI50 in the test on CCRF-CEM is > 57.5 µM (inactive); in the test with A498, 19.4 µM (inactive); in the test on SK-OV-3, > 100 µM (inactive); in the test with HOP-92, 17.2 µM (inactive); in the test with RXF 393, 7.69 µM (inactive); with NCI/ADR-RES it was 27 µM (inactive). The GI50 was 26.5 µM (inactive) in the test on K562; 12.1 µM (inactive) with HL-60; 14.6 µM (inactive) with UACC-257; > 100 µM (inactive) in the test on Malme-3M; 2.92 µM (inactive) with RPMI-8226; 4.42 µM (inactive) in the test on HT-29. In addition, the GI50 with ACHN was 13.3 µM (inactive); in the test with SNB-19, 18.7 µM (inactive).
As for `CNC(=O)OCc1c(COC(=O)NC)c(-c2ccc(-c3ccccc3)cc2)n(C)c1C`, the GI50 is 10.9 µM (inactive) in the test with SK-MEL-28; 2.69 µM (inactive) in the test on MDA-MB-231; 1.47 µM (inactive) in the test with M14; 2.26 µM (inactive) in the test with OVCAR-8; 2.06 µM (inactive) in the test with NCI-H23; 2.64 µM (inactive) in the test on HCT-116. For the same molecule, the GI50 in the test on CCRF-CEM is 0.502 µM (active); in the test with A498, 0.504 µM (active); in the test with SK-OV-3 it was 2.88 µM (inactive); in the test on HOP-92 it was 2.99 µM (inactive); with RXF 393, 0.512 µM (active); in the test on NCI/ADR-RES, 2.64 µM (inactive). In addition, the GI50 with K562 is 0.822 µM (active); in the test on HL-60, 0.351 µM (active); with UACC-257 it was 6.95 µM (inactive); in the test on Malme-3M it was 1.15 µM (inactive); in the test with RPMI-8226, 0.467 µM (active); in the test with HT-29, 2.7 µM (inactive). The GI50 is 0.493 µM (active) with ACHN and 3.33 µM (inactive) in the test with SNB-19.
In the case of `FC(F)(F)c1nc2ccc(SSc3ccc4nc(C(F)(F)F)[nH]c4c3)cc2[nH]1`, the GI50 in the test on SK-MEL-28 was > 10 µM (inactive); in the test on MDA-MB-231, 23 µM (inactive); in the test on M14 it was 94.2 µM (inactive); in the test on OVCAR-8, 92.3 µM (inactive); with NCI-H23 it was 47.5 µM (inactive); in the test with HCT-116, > 10 µM (inactive). Also, the GI50 in the test with CCRF-CEM, in the test on A498, in the test on SK-OV-3, in the test on HOP-92, in the test on RXF 393 and with NCI/ADR-RES was > 10 µM (inactive) in each case. The GI50 in the test on K562 was 31.9 µM (inactive); with HL-60 it was 48.8 µM (inactive); with UACC-257 it was 35.9 µM (inactive); in the test with Malme-3M it was > 10 µM (inactive); with RPMI-8226, 25.1 µM (inactive); in the test on HT-29, > 10 µM (inactive). Further, the GI50 in the test on ACHN is 88.7 µM (inactive); in the test on SNB-19 it was > 10 µM (inactive).
Take `CCc1nc(N)nc(N)c1-c1ccc(Cl)c([N+](=O)[O-])c1`: the GI50 in the test on SK-MEL-28 is 37.9 µM (inactive); in the test with MDA-MB-231, 24.4 µM (inactive); in the test with M14, 0.0735 µM (active); in the test on OVCAR-8 it was 0.074 µM (active); in the test on NCI-H23, 0.0887 µM (active); in the test on HCT-116 it was 0.0224 µM (active). For the same molecule, the GI50 with CCRF-CEM is 0.0557 µM (active); with A498, 2.49 µM (inactive); in the test on SK-OV-3, 11.2 µM (inactive); in the test with HOP-92 it was 5.16 µM (inactive); in the test on RXF 393, 10.8 µM (inactive); in the test with NCI/ADR-RES, 0.334 µM (active). The GI50 in the test with K562 is 0.0156 µM (active); in the test on HL-60, 0.053 µM (active); in the test on UACC-257, 6.14 µM (inactive); in the test on Malme-3M, 18.4 µM (inactive); with RPMI-8226, 0.676 µM (active); in the test on HT-29, 0.0588 µM (active). Also, the values for the GI50 in the test on ACHN and with SNB-19 were 0.1 µM (active) and 10.5 µM (inactive), respectively.

The values are drawn from ChEMBL document CHEMBL1201862, “PubChem BioAssay data set” (2004).
